From paper PMC9290008 (ACS Medicinal Chemistry Letters, 2022)
One block for each compound: values may come before it.

Assay: GSH incorporation experiments
Format: in vitro ADME, human
Conditions: 10 μM compound, GSH 5 mM, 37 °C, 30 min; for % GSH + HLM: presence of HLM; for %GSH − HLM: absence of HLM

SMILES: Clc1ncc(Cl)c(-n2ccc3ncccc32)n1 [Compound 1]
% GSH + HLM: 96.0%

SMILES: Clc1nccc(-n2ccc3ncccc32)n1 [Compound 8]
%GSH − HLM: 0.1% | % GSH + HLM: 53.5%

SMILES: Clc1ncc(Cl)c(-n2ccc3ncncc32)n1 [Compound 20]
%GSH − HLM: 2.5% | % GSH + HLM: 99.9%

More lines, now with the values ahead:

%GSH − HLM: 2.8% | % GSH + HLM: 49.9%
SMILES: N#Cc1ccc(Cl)nc1-n1ccc2ncncc21 [Compound 23]

%GSH − HLM: 0% | % GSH + HLM: 16.1%
SMILES: Clc1ncc(Cl)c(-c2c[nH]c3ncncc23)n1 [Compound 21]
